Reference: patent publication US20250388623A1, “PEPTIDE INHIBITOR AND USE THEREOF” (CHENGDU BRILLIANT INSPIRATION BIOTHERAPEUTICS CO., LTD, priority 2022, published 2025)
Bridge positions count the residues as written; N and C are the ends. Peptide text beside a SMILES is read from it.

Experiments:
[1] = system: TSP-1-dependent TGF-β activation; experiment: TSP-1-dependent TGF-β activation in PMA-differentiated THP-1 cells with 293-TGFβ Res reporter cells; type: cell-based; conditions: 100 μM polypeptide, 24 h; ratio to negative control group (1.00)
Method: In this Example, the inhibitory effects of the polypeptides on TSP-1-dependent TGF-β activation were detected using a model based on a high TSP-1 expressing cell. In the assay, THP-1 cells (American Typical Culture Collection, ATCC, TIB-20) were induced by phorbol ester (Phorbol 12-myristate 13-acetate, PMA) (Sigma, Catalog No. P1585) and differentiated into macrophage-like cells with distinct macrophage expression profiles.
The experiment was performed as follows: THP-1 cells were inoculated in a 96-well plate, and treated with 300 nM PMA for differentiation and adherence to form macrophage-like cells. 100 μM polypeptide was added (For the negative control group, an equal volume of PBS (the solvent for the polypeptide) was added, while the positive control group received an equal concentration of the polypeptide shown in SEQ ID NO: 50.) The cells were treated for 24 hours, and then a 293 reporter cell strain, 293-TGFβ Res cell strain (novoprotein, Catalog No. XCC03-1), was added for detecting TGF-β activity, and co-cultivated for 24 hours. Bio-Lite Luciferase Assay lysate comprising fluorescent substrate (Vazyme, Catalog No. DD1201-01) was added, and the fluorescent intensity was detected using a multifunctional microplate reader (TECAN, model Infinite 200 Pro). The inhibitory effect of the polypeptide on TGF-β activation was assessed by calculating the ratio of the fluorescence signal from the polypeptide-treated groups to that of the negative control group.

[2] = system: mouse lung fibrosis model induced by bleomycin (BLM); experiment: Hydroxyproline (HYP) content / collagen deposition in lung, BLM mouse fibrosis model; type: in vivo; conditions: 3 mg/kg intratracheal twice weekly x4 from Day 8, Day 21, BLM model group = 100.00
Method: This Example was to evaluate the inhibitory effect of polypeptides on collagen deposition in fibrotic tissues. In this example, 6- to 8-week-old male C57/6J mice weighing 18-20 g were used as subjects for the study. The experimental animals were randomized into groups, eight animals in each group. On the day of modeling (Day 1), a 0.7 USP/kg dose of bleomycin solution was administered via the tracheal route to induce the model. Treatment dosing started on Day 8. Each peptide-treated group received the peptide drug intratracheally at a dosage of 3 mg/kg, administered twice weekly for a total of four doses. The BLM model group received an equal volume of solvent (saline) as a control. The administration procedure followed that described in Example 4. Day 21 was set as the experimental endpoint for assessing the degree of fibrosis in the model.
On Day21, the animals were dissected to collect lung tissues, and after grinding the lung tissues in liquid nitrogen, hydroxyproline (HYP) was extracted from the tissue using acid hydrolysis. HYP is a unique amino acid found in collagen, and the determination of HYP content is an important indicator reflecting the metabolism of collagen tissue and the degree of fibrosis. 1 mL of 6N HCl was added per 100 mg of tissue and thoroughly mixed, followed by hydrolysis at 121° C. for 6 hours. The hydrolysate was centrifuged, and the resulting supernatant, along with a gradient of HYP standard solutions (Sigma, Catalog No. V900395-25G) at different concentrations, was used for HYP content determination. To each well of a 96-well plate, 10 μL of the hydrolysate supernatant was added and dried in an oven at 65° C. 100 μL per well of 1.4% chloramine T oxidizing solution (Sigma, Catalog No. 23270-50G) was added, and incubated at room temperature for 15 minutes. 100 μL per well of Ehrlich's color development solution (Solarbio, Catalog No. G1290) was added and incubated at 65° C. for 30 minutes. The absorbance of each sample well was measured at 560 nm (OD560) using a multifunctional microplate reader (TECAN, model Infinite 200 Pro). The total HYP content in the lung tissue from each experimental group was calculated to determine the reduction percentage of HYP content in the peptide-treated group relative to the model group, and the inhibitory effect of the peptide molecule on collagen deposition at the fibrotic site was assessed.

[3] = system: mouse lung fibrosis model induced by bleomycin (BLM); experiment: Inflammatory and fibrotic pathology (HE, Masson's trichrome) in BLM mouse fibrosis model; type: in vivo; set-up: scale not given here; conditions: for Inflammatory score Mean: 3 mg/kg intratracheal twice weekly x4 from Day 8, Day 21, HE staining, BLM model 2.25, negative control 0.36; for Fibrosis score Mean: 3 mg/kg intratracheal twice weekly x4 from Day 8, Day 21, Masson's trichrome, BLM model 3.25, negative control 1.01
Method: This Example was to assess the inhibitory effect of polypeptides on fibrotic pathology. 6- to 8-week-old male C57/6J mice weighing 18-20 g were used as subjects for the study. The experimental animals were randomized into groups, 6 animals in each group. On the day of modeling (Day 1), a single dose of 0.7 USP/kg of BLM solution was administered via the tracheal route to the BLM group and each peptide-treated group to induce the model. The negative control group received an equal volume of saline. Treatment dosing started on Day 8. Each peptide-treated group received the peptide drug intratracheally at a dosage of 3 mg/kg, while the positive control group received the peptide of SEQ ID NO: 50 at the same dosage, and the administration frequency was twice a week, with a total of 4 administrations. The BLM model group and the negative control group received an equal volume of solvent (saline) as a control. The procedure followed that described in Example 4.
On Day 21, the lung tissues were dissected, washed with saline to remove blood stains, and dried with gauze. Histopathological analysis was then performed on the dissected lung tissues. The lung tissues were perfused with 0.5 mL of paraformaldehyde via the trachea and placed in 4 mL of paraformaldehyde. A small amount of gauze was added to ensure the lung tissues were completely immersed in the fixative solution. The tissues were fixed for more than 24 hours. One lobe of the left lung and four lobes of the right lung were trimmed to the maximum coronal plane, placed in an embedding cassette, dehydrated overnight, and then paraffin-embedded to make 3 μm sections. An autostainer (Leica, model ST5010) was used for Hematoxylin (Herst, lot no. 201905)-Eosin (Chron, lot no.2018070301) (HE) staining, and MASSON'S trichrome (Celestineblue, Chron, lot no. MKCH8129; Aniline blue, Yuanye, lot no. H70J11S115483; Ponceau, Sigma, lot no. SHBM2047) staining. After mounting the sections, they were scanned using a digital panoramic scanner (Zhiyue, model WS-10). For each lung lobe, ≤10 visual fields were captured under a 20× magnification. The severity of inflammation and the severity of fibrosis were assessed using HE staining and Masson's trichrome staining, respectively, to evaluate the inhibitory effects of the polypeptides on inflammatory infiltration and fibrotic deposition at pathological fibrotic sites.

Compound	Mean (relative fluorescence intensity) [1]	HYP content in lung tissue relative to model group, Mean (%) [2] [%]	Inflammatory score Mean [3]	Fibrosis score Mean [3]
C[C@@H]1NC(=O)[C@H](CC(=O)O)NC(=O)[C@H](CCC(N)=O)NC(=O)[C@H]([C@@H](C)O)NC(=O)[C@H](CC(N)=O)NC(=O)[C@H](CC(=O)O)NC(=O)[C@H](CCC(=O)O)NC1=O [SEQ ID NO: 40, cyclo[Thr-Gln-Asp-Ala-Glu-Asp-Asn]] (cyclo(AEDNTQD))	0.77	77.88	–	–
CC(=O)N[C@H](C(=O)N[C@H]1CSSC[C@@H](C(=O)O)NC(=O)[C@H](CC(N)=O)NC(=O)[C@H](CC(=O)O)NC(=O)[C@H](CCC(=O)O)NC(=O)[C@H](C)NC(=O)[C@H](CC(=O)O)NC1=O)[C@@H](C)O [SEQ ID NO: 43, Ac-Thr-cyclo[Cys-Asp-Ala-Glu-Asp-Asn-Cys]] (Ac-TCDAEDNC-OH; disulfide 2-8)	0.65	72.18	1.46	2.59
Ac-TQDAEDN-NH2 [SEQ ID NO: 06, Ac-Thr-Gln-Asp-Ala-Glu-Asp-Asn-NH2]	0.65	79.51	1.65	2.65
Ac-TQDAEDPTAS-NH2 [SEQ ID NO: 25, Ac-Thr-Gln-Asp-Ala-Glu-Asp-Pro-Thr-Ala-Ser-NH2]	0.73	77.75	1.39	2.47
CC(=O)N[C@H](C(=O)N[C@H]1CSSC[C@@H](C(N)=O)NC(=O)[C@H](CC(N)=O)NC(=O)[C@H](CC(=O)O)NC(=O)[C@H](CCC(=O)O)NC(=O)[C@H](C)NC(=O)[C@H](CC(=O)O)NC1=O)[C@@H](C)O [SEQ ID NO: 44, Ac-Thr-cyclo[Cys-Asp-Ala-Glu-Asp-Asn-Cys]-NH2] (Ac-TCDAEDNC-NH2; disulfide 2-8)	0.43	78.25	–	–
Ac-TQDAEDNTASH-NH2 [SEQ ID NO: 33, Ac-Thr-Gln-Asp-Ala-Glu-Asp-Asn-Thr-Ala-Ser-His-NH2]	0.67	82.23	1.27	2.64
Ac-TQDPEDNTAS-NH2 [SEQ ID NO: 26, Ac-Thr-Gln-Asp-Pro-Glu-Asp-Asn-Thr-Ala-Ser-NH2]	0.68	72.07	0.95	2.05
C[C@@H]1NC(=O)[C@H]([C@@H](C)O)NC(=O)[C@H](CC(N)=O)NC(=O)[C@H](CC(=O)O)NC(=O)[C@H](CCC(=O)O)NC(=O)[C@@H]2CCCN2C(=O)[C@H](CC(=O)O)NC(=O)[C@H](CCC(N)=O)NC(=O)[C@H]([C@@H](C)O)NC(=O)[C@H](CO)NC1=O [SEQ ID NO: 46, cyclo[Thr-Gln-Asp-Pro-Glu-Asp-Asn-Thr-Ala-Ser]] (cyclo(ASTQDPEDNT))	0.69	80.16	–	–
Ac-TQDAEDPTA-NH2 [SEQ ID NO: 22, Ac-Thr-Gln-Asp-Ala-Glu-Asp-Pro-Thr-Ala-NH2]	0.74	72.66	1.43	2.33
